Values of other authors in patent US20070213390A1, “HMGCoA reductase inhibitor-angiotensin converting enzyme inhibitor compounds” (pSivida Inc., priority 2005, published 2007).

Molecular target: T1, HMGR (HMGCoA reductase) (Homo sapiens, UniProt P04035)
T1 sequence (P04035 426-888 limits assumed): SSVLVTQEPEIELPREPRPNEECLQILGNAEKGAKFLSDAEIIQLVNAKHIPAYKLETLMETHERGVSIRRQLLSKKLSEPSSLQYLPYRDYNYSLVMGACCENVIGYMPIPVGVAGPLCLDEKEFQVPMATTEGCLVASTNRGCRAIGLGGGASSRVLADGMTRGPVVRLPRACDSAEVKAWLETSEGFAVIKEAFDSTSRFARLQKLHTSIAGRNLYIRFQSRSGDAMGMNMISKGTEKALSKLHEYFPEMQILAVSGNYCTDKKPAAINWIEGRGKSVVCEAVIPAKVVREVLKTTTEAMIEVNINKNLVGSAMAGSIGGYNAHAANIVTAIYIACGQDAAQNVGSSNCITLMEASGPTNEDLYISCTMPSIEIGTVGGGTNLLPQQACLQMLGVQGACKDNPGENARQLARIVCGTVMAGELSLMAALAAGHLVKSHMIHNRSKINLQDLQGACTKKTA
Conditions: substrate of HMGR; read-out: Michaelis constant, Km, for HMG-CoA

Km: 4 µM
Structure (SMILES): CC(O)(CC(=O)O)CC(=O)SCCNC(=O)CCNC(=O)[C@H](O)C(C)(C)COP(=O)(O)OP(=O)(O)OC[C@H]1O[C@@H](n2cnc3c(N)ncnc32)[C@H](O)[C@@H]1OP(=O)(O)O (stereo partly shown) [HMG-CoA, 3-hydroxy-3-methylglutaryl CoA]
